Values of other authors as cited in patent US5030638A, “Method of antiviral enhancement” (priority 1990, dated 1991).

Columns and labels:
[1] = test system: trimming glucosidase I; conditions: Hettkamp et al.; cited from earlier work
[2] = test system: trimming glucosidase II; conditions: Hettkamp et al.; cited from earlier work
[3] = test system: HIV; conditions: literature; cited from earlier work
[4] = test system: α-glycosidase; conditions: literature; cited from earlier work

Row | Compound | effect on trimming glucosidase I [1] | effect on trimming glucosidase II [2] | HIV inhibitory / antiviral activity [3] | α-glycosidase inhibitory activity [4]
1 | CCCCCCCCCCCCN1C[C@H](O)[C@@H](O)[C@H](O)[C@H]1CO [N-dodecyl-1-deoxynojirimycin] | to a lesser degree than deoxynojirimycin or N-methyl-deoxynojirimycin | to a lesser degree than deoxynojirimycin or N-methyl-deoxynojirimycin | – | –
2 | OC[C@H]1NCC[C@@H](O)[C@@H]1O [fagomine] | – | – | no HIV inhibition was observed | known to have α-glycosidase inhibitory activity
